# Measurements reported in ChEMBL document CHEMBL4376820, “Homodimeric Tobramycin Adjuvant Repurposes Novobiocin as an Effective Antibacterial Agent against Gram-Negative Bacteria” (J Med Chem, 2019).
# Key:
# Klebsiella pneumoniae [1] = assay: Antibacterial activity against Klebsiella pneumoniae 116381 clinical isolate incubated for 18 hrs by CLSI protocol based assay; type: functional; conditions: Klebsiella pneumoniae, 116381, 18 h
# Klebsiella pneumoniae [2] = assay: Bactericidal activity against Klebsiella pneumoniae 116381 assessed as log reduction in colony forming units per ml at 7.1 in LB media after 24 hrs by time-kill assay; type: functional
# Pseudomonas aeruginosa [3] = assay: Synergistic antibacterial activity against wild type Pseudomonas aeruginosa PAO1 assessed as potentiation of moxifloxacin-induced antibacterial effect incubated for 18 hrs by checkerboard assay relative to moxifloxacin alone; type: functional
# [4] = Toxicity in Galleria mellonella larvae assessed as survivability at 200 mg/kg measured every 6 hrs for 72 hrs; type: organism-based; conditions: in vivo
# Acinetobacter baumannii [5] = assay: Antibacterial activity against wild type Acinetobacter baumannii ATCC 17978 assessed as resistant development at 7.1 uM measured after 3 days of passaging in presence of novobiocin by microbroth dilution method relative to control; type: functional
# Pseudomonas aeruginosa [6] = assay: Synergistic antibacterial activity against wild type Pseudomonas aeruginosa PAO1 assessed as potentiation of novobiocin-induced antibacterial effect incubated for 18 hrs by checkerboard assay relative to novobiocin alone; type: functional
# Pseudomonas aeruginosa [7] = assay: Synergistic antibacterial activity against wild type Pseudomonas aeruginosa PAO1 assessed as potentiation of rifampicin-induced antibacterial effect incubated for 18 hrs by checkerboard assay relative to rifampicin alone; type: functional
# Pseudomonas aeruginosa [8] = assay: Antibacterial activity against Pseudomonas aeruginosa 259-96918 clinical isolate incubated for 18 hrs by CLSI protocol based assay; type: functional; conditions: 259-96918, 18 h
# Pseudomonas aeruginosa [9] = assay: Synergistic antibacterial activity against wild type Pseudomonas aeruginosa PAO1 assessed as potentiation of fosfomycin-induced antibacterial effect incubated for 18 hrs by checkerboard assay; type: functional, organism-based
# Pseudomonas aeruginosa [10] = assay: Antibacterial activity against wild type Pseudomonas aeruginosa PAO1 incubated for 18 hrs by CLSI protocol based assay; type: functional; conditions: PAO1, 18 h
# Pseudomonas aeruginosa [11] = assay: Antibacterial activity against carbapenem-resistant Pseudomonas aeruginosa 264-104354 clinical isolate incubated for 18 hrs by CLSI protocol based assay; type: functional; conditions: 264-104354, 18 h
# Pseudomonas aeruginosa [12] = assay: Synergistic antibacterial activity against wild type Pseudomonas aeruginosa PAO1 assessed as potentiation of clindamycin-induced antibacterial effect incubated for 18 hrs by checkerboard assay; type: functional, organism-based
# Pseudomonas aeruginosa [13] = assay: Antibacterial activity against Pseudomonas aeruginosa 260-97103 clinical isolate incubated for 18 hrs by CLSI protocol based assay; type: functional; conditions: 260-97103, 18 h
# Pseudomonas aeruginosa [14] = assay: Synergistic antibacterial activity against wild type Pseudomonas aeruginosa PAO1 assessed as potentiation of cefotaxime-induced antibacterial effect incubated for 18 hrs by checkerboard assay relative to cefotaxime alone; type: functional
# Pseudomonas aeruginosa [15] = assay: Antibacterial activity against mexAB-oprM/mexCD-oprJ/mexEF-oprN/mexJK/mexXY/opmH mutant deficient Pseudomonas aeruginosa PAO750 incubated for 18 hrs by CLSI protocol based assay; type: functional; conditions: PAO750, 18 h
# Pseudomonas aeruginosa [16] = assay: Potentiation of novobiocin-induced antibacterial activity against carbapenem-resistant Pseudomonas aeruginosa 262-101856 clinical isolate assessed as fold reduction in novobiocin MIC incubated for 18 hrs by CLSI protocol based assay relative to novobiocin MIC; type: functional
# Pseudomonas aeruginosa [17] = assay: Antibacterial activity against wild type Pseudomonas aeruginosa PAO1 assessed as fractional inhibitory concentration index incubated for 18 hrs in presence of tobramycin by checkerboard assay; type: functional
# Pseudomonas aeruginosa [18] = assay: Potentiation of novobiocin-induced antibacterial activity against carbapenem-resistant Pseudomonas aeruginosa 264-104354 clinical isolate assessed as novobiocin MIC at <= 7.1 uM incubated for 18 hrs by CLSI protocol based assay (reference value: 512 ug/ml); type: functional; conditions: 264-104354, 18 h
# Pseudomonas aeruginosa [19] = assay: Synergistic antibacterial activity against wild type Pseudomonas aeruginosa PAO1 assessed as potentiation of minocycline-induced antibacterial effect incubated for 18 hrs by checkerboard assay; type: functional, organism-based
# Pseudomonas aeruginosa [20] = assay: Potentiation of novobiocin-induced antibacterial activity against carbapenem-resistant Pseudomonas aeruginosa 264-104354 clinical isolate assessed as fold reduction in novobiocin MIC incubated for 18 hrs by CLSI protocol based assay relative to novobiocin MIC; type: functional
# Pseudomonas aeruginosa [21] = assay: Synergistic antibacterial activity against wild type Pseudomonas aeruginosa PAO1 assessed as potentiation of chloramphenicol-induced antibacterial effect incubated for 18 hrs by checkerboard assay; type: functional, organism-based
# Acinetobacter baumannii [22] = assay: Potentiation of novobiocin-induced antibacterial activity against Acinetobacter baumannii LAC-4 clinical isolate assessed as novobiocin MIC at <= 7.1 uM incubated for 18 hrs by CLSI protocol based assay (reference value: 8 ug/ml); type: functional; conditions: LAC-4, 18 h
# Acinetobacter baumannii [23] = assay: Antibacterial activity against wild type Acinetobacter baumannii ATCC 17978 by checkerboard assay; type: functional
# Klebsiella pneumoniae [24] = assay: Antibacterial activity against colistin-resistant Klebsiella pneumoniae 113250 clinical isolate incubated for 18 hrs by CLSI protocol based assay; type: functional; conditions: Klebsiella pneumoniae, 113250, 18 h
# Escherichia coli = assay: Antibacterial activity against colistin-resistant Escherichia coli 94474 clinical isolate harboring mcr-1 gene incubated for 18 hrs by CLSI protocol based assay; type: functional; conditions: Escherichia coli, 94474, 18 h
# HepG2 = assay: Cytotoxicity against human HepG2 cells at 50 uM incubated for 48 hrs by PrestoBlue dye based fluorescence assay; type: cell-based; conditions: hepg2, 48 h
# Pseudomonas aeruginosa [25] = assay: Synergistic antibacterial activity against wild type Pseudomonas aeruginosa PAO1 assessed as potentiation of ciprofloxacin-induced antibacterial effect incubated for 18 hrs by checkerboard assay; type: functional, organism-based
# Acinetobacter baumannii [26] = assay: Potentiation of novobiocin-induced antibacterial activity against wild type Acinetobacter baumannii ATCC 17978 assessed as fold reduction in novobiocin MIC incubated for 18 hrs by CLSI protocol based assay relative to novobiocin MIC; type: functional
# Pseudomonas aeruginosa [27] = assay: Synergistic antibacterial activity against wild type Pseudomonas aeruginosa PAO1 assessed as potentiation of moxifloxacin-induced antibacterial effect incubated for 18 hrs by checkerboard assay; type: functional, organism-based
# [28] = Toxicity in Galleria mellonella larvae MDR Acinetobacter baumannii isolate assessed as mortality at 100 mg/kg measured after 24 hrs relative to control; type: ADME, organism-based; conditions: in vivo, read-out: Activity
# Acinetobacter baumannii [29] = assay: Antibacterial activity against Acinetobacter baumannii LAC-4 clinical isolate incubated for 18 hrs by CLSI protocol based assay; type: functional; conditions: LAC-4, 18 h
# Pseudomonas aeruginosa [30] = assay: Synergistic antibacterial activity against wild type Pseudomonas aeruginosa PAO1 assessed as potentiation of rifampicin-induced antibacterial effect incubated for 18 hrs by checkerboard assay; type: functional, organism-based
# Pseudomonas aeruginosa [31] = assay: Potentiation of novobiocin-induced antibacterial activity against colistin and carbapenem-resistant Pseudomonas aeruginosa 101243 clinical isolate assessed as novobiocin MIC at <= 7.1 uM incubated for 18 hrs by CLSI protocol based assay (reference value: 128 ug/ml); type: functional; conditions: Pseudomonas aeruginosa, 101243, 18 h
# Pseudomonas aeruginosa [32] = assay: Synergistic antibacterial activity against wild type Pseudomonas aeruginosa PAO1 assessed as potentiation of clindamycin-induced antibacterial effect incubated for 18 hrs by checkerboard assay relative to clindamycin alone; type: functional
# Pseudomonas aeruginosa [33] = assay: Synergistic antibacterial activity against wild type Pseudomonas aeruginosa PAO1 assessed as potentiation of ceftazidime-induced antibacterial effect incubated for 18 hrs by checkerboard assay relative to ceftazidime alone; type: functional
# Acinetobacter baumannii [34] = assay: Antibacterial activity against colistin-resistant Acinetobacter baumannii ATCC 17978 mutant generated from seven serial passages by checkerboard assay; type: functional
# Acinetobacter baumannii [35] = assay: Antibacterial activity against colistin-resistant Acinetobacter baumannii 92257 clinical isolate incubated for 18 hrs by CLSI protocol based assay; type: functional; conditions: Acinetobacter baumannii, 92257, 18 h
# Pseudomonas aeruginosa [36] = assay: Synergistic antibacterial activity against wild type Pseudomonas aeruginosa PAO1 assessed as potentiation of aztreonam-induced antibacterial effect incubated for 18 hrs by checkerboard assay relative to aztreonam alone; type: functional
structure (smiles),measurement,setting,value
NC[C@H]1O[C@H](O[C@H]2[C@H](OCCCCc3cn(CCCCO[C@@H]4[C@@H](O[C@H]5O[C@H](CO)[C@@H](O)[C@H](N)[C@H]5O)[C@H](N)C[C@H](N)[C@H]4O[C@H]4O[C@H](CN)[C@@H](O)C[C@H]4N)nn3)[C@@H](O[C@H]3O[C@H](CO)[C@@H](O)[C@H](N)[C@H]3O)[C@H](N)C[C@@H]2N)[C@H](N)C[C@@H]1O.O=C(O)C(F)(F)F.O=C(O)C(F)(F)F.O=C(O)C(F)(F)F.O=C(O)C(F)(F)F.O=C(O)C(F)(F)F.O=C(O)C(F)(F)F.O=C(O)C(F)(F)F.O=C(O)C(F)(F)F.O=C(O)C(F)(F)F.O=C(O)C(F)(F)F,MIC,Klebsiella pneumoniae [1],> 128 µg/mL
same,Activity,Klebsiella pneumoniae [2],-8.68 CFU/ml
same,fold change (FC),Pseudomonas aeruginosa [3],4 - 128
same,Activity,[4],Non-Toxic
same,fold change (FC),Acinetobacter baumannii [5],4
same,fold change (FC),Pseudomonas aeruginosa [6],4 - 128
same,fold change (FC),Pseudomonas aeruginosa [7],4 - 128
same,MIC,Pseudomonas aeruginosa [8],> 128 µg/mL
same,Activity,Pseudomonas aeruginosa [9],Dose-dependent effect
same,MIC,Pseudomonas aeruginosa [10],> 128 µg/mL
same,MIC,Pseudomonas aeruginosa [11],> 128 µg/mL
same,Activity,Pseudomonas aeruginosa [12],Dose-dependent effect
same,MIC,Pseudomonas aeruginosa [13],> 128 µg/mL
same,fold change (FC),Pseudomonas aeruginosa [14],4 - 128
same,MIC,Pseudomonas aeruginosa [15],> 128 µg/mL
same,Ratio,Pseudomonas aeruginosa [16],64
same,fractional inhibitory concentration index (FICI),Pseudomonas aeruginosa [17],>4
same,MIC,Pseudomonas aeruginosa [18],8 µg/mL
same,Activity,Pseudomonas aeruginosa [19],Dose-dependent effect
same,Ratio,Pseudomonas aeruginosa [20],64
same,Activity,Pseudomonas aeruginosa [21],Dose-dependent effect
same,MIC,Acinetobacter baumannii [22],0.5 µg/mL
same,MIC,Acinetobacter baumannii [23],0.5 µg/mL
same,MIC,Klebsiella pneumoniae [24],> 128 µg/mL
same,MIC,Escherichia coli,> 128 µg/mL
same,Activity,HepG2,Non-Toxic
same,Activity,Pseudomonas aeruginosa [25],Dose-dependent effect
same,Ratio,Acinetobacter baumannii [26],32
same,Activity,Pseudomonas aeruginosa [27],Dose-dependent effect
same,mortality at 24 h,[28],100%
same,MIC,Acinetobacter baumannii [29],> 128 µg/mL
same,Activity,Pseudomonas aeruginosa [30],Dose-dependent effect
same,MIC,Pseudomonas aeruginosa [31],1 µg/mL
same,fold change (FC),Pseudomonas aeruginosa [32],4 - 128
same,fold change (FC),Pseudomonas aeruginosa [33],4 - 128
same,MIC,Acinetobacter baumannii [34],< 0.031 µg/mL
same,MIC,Acinetobacter baumannii [35],> 128 µg/mL
same,fold change (FC),Pseudomonas aeruginosa [36],4 - 128
